One assay relates to CYPIR. Description: Postemergence foliar-applied greenhouse weed control, direct-seeded rice system. Format: in vivo, Cyperus iria L. The text has this:
Seeds or nutlets of the desired test plant species were planted in a soil matrix prepared by mixing a loam or sandy loam soil (e.g., 28.6 percent silt, 18.8 percent clay, and 52.6 percent sand, with a pH of about 5.8 and an organic matter content of about 1.8 percent) and calcareous grit in an 80 to 20 ratio. The soil matrix was contained in plastic pots with a volume of 1 quart and a surface area of 83.6 square centimeters (cm^2). When required to ensure good germination and healthy plants, a fungicide treatment and/or other chemical or physical treatment was applied. The plants were grown for 8-22 days in a greenhouse with an approximate 14 h photoperiod which was maintained at about 29° C. during the day and 26° C. during the night. Nutrients (Peters Excel® 15-5-15 5-Ca 2-Mg and iron chelate) were applied in the irrigation solution as needed and water was added on a regular basis. Supplemental lighting was provided with overhead metal halide 1000-Watt lamps as necessary. The plants were employed for testing when they reached the first through fourth true leaf stage. […]
Treatment requirements were calculated based upon the rates being tested, the concentration of active ingredient or acid equivalent in the formulation, and a 12 mL application volume at a rate of 187 L/ha.
For treatments comprised of formulated compounds, measured amounts of compounds were placed individually in 25 mL glass vials and diluted in a volume of 1.25% (v/v) Agri-Dex® crop oil concentrated to obtain 12× stock solutions. […]
For treatments comprised of formulated and technical compounds, weighed amounts of the technical materials were placed individually in 25 mL glass vials and dissolved in a volume of 97:3 v/v acetone/DMSO to obtain 12× stock solutions, and measured amounts of the formulated compounds were placed individually in 25 mL glass vials and diluted in a volume of 1.5% (v/v) crop oil concentrate or water to obtain 12× stock solutions. […]

Another assay concerns ECHCG. Description: In-water applied greenhouse weed control, transplanted paddy rice system. Format: in vivo, Echinochloa crusgalli (L.) Beauv. The conditions noted are these: in-water application. On the procedure:
Weed seeds or nutlets of the desired test plant species were planted in puddled soil (mud) prepared by mixing a shredded, non-sterilized mineral soil (50.5 percent silt, 25.5 percent clay, and 24 percent sand, with a pH of about 7.6 and an organic matter content of about 2.9 percent) and water at a 1:1 volumetric ratio. The prepared mud was dispensed in 365 mL aliquots into 16-ounce (oz.) non-perforated plastic pots with a surface area of 86.59 square centimeters (cm^2) leaving a headspace of 3 centimeters (cm) in each pot. Mud was allowed to dry overnight prior to planting or transplanting. Rice seeds were planted in Sun Gro MetroMix® 306 planting mixture, which typically has a pH of 6.0 to 6.8 and an organic matter content of about 30 percent, in plastic plug trays. Seedlings at the second or third leaf stage of growth were transplanted into 840 mL of mud contained in 32-oz. non-perforated plastic pots with a surface area of 86.59 cm^2 4 days prior to herbicide application. The paddy was created by filling the headspace of the pots with 2.5 to 3 cm of water. […]
Treatment requirements for each compound or herbicidal component were calculated based upon the rates being tested, the concentration of active ingredient or acid equivalent in the formulation, an application volume of 2 mL per component per pot, and an application area of 86.59 cm^2 per pot.
For formulated compounds, a measured amount was placed in an individual 100 or 200 mL glass vial and was dissolved in a volume of 1.25% (v/v) Agri-Dex® crop oil concentrate to obtain application solutions. […]
The treated plants and control plants were placed in a greenhouse as described above and water was added as needed to maintain a paddy flood. After approximately 3 weeks the condition of the test plants as compared with that of the untreated plants was determined visually and scored on a scale of 0 to 100 percent where 0 corresponds to no injury or growth inhibition and 100 corresponds to complete kill. […]

The mark [1] stands for this setting: Compound A Benzyl Ester 4.38 gae/ha alone.
Where [2] appears, read: Compound A Benzyl Ester 8.75 gae/ha alone.

On to `COc1c(Cl)ccc(-c2nc(C(=O)OCc3ccccc3)c(Cl)c(N)c2F)c1F` [Compound A Benzyl Ester], for which the “Visual Weed Control (%) - 22 DAA CYPIR Obs” value in the assay on CYPIR (setting [1]) worked out at 25%; in the assay on CYPIR (setting [2]) it was 50%. Besides, the “Visual Weed Control (%) - 21 DAA ECHCG Obs” value in the assay with ECHCG (setting [1]) came to 40%; with ECHCG (setting [2]), 50%.

The values are drawn from patent US8889591B2, “Herbicidal compositions comprising 4-amino-3-chloro-5-fluoro-6-(4-chloro-2-fluoro-3-methoxyphenyl)pyridine-2-carboxylic acid or a derivative thereof and bromobutide, daimuron, oxaziclomefone or pyributicarb” (Dow Agrosciences LLC, priority 2012, dated 2014).
